Like-named read-outs stand apart in the source and are kept apart here.
Key:
[1] = Gamma irradiation of aqueous 1% taurolidine solution, radiolysis products; type: physicochemical; details: approx. 25 gKy, aqueous 1% solution in 500 ml glass bottles; for content after γ-irradiation of a 1% taurolidine solution: IR, HPLC/MS, amino acid analysis
Description: Examination of an aqueous 1% taurolidine solution for radiolysis products. After γ-irradiation (approx. 25 gKy) of a 1% taurolidine solution contained in 500 ml glass bottles the following products can be isolated, or quantitatively determined by means of IR spectroscopy, HPLC/MS analysis, amino acid analysis: […]

[2] = system: C2C12 Muscle Myoblast Cells; assay: Acute toxicity: cell adhesion evaluated microscopically; details: for Adhesion of C2C12 Muscle Myoblast Cells: then 20 h, % of control cultures
Description: (§1) In the present report, the acute toxicity of dehydrotaurultam was evaluated compared to taurultam. For this, two different categories of cells (muscle cells and fibroblasts) were incubated with three different concentrations of the two test substances for different periods of time. A possible toxic effect of the test substances on the cells was analyzed 20 hours later. The measures to determine possible cell damage were viability and level of cell adhesion.
(§2) The COS-7 and C2C12 cell lines were plated at 50% confluence on 48 well dishes, and incubated for 24 hours at 37°. Then the media were changed. To this, either unmodified medium (control), or medium containing 0.1%, 0.25% or 0.5% taurultam or dehydrotaurultam was used. The cell cultures were incubated at 37° for 5, 10, 20, 60 and 120 minutes, and then washed three times with fresh medium. After a further 20 hours in the incubator at 37°, the cells were evaluated.
(§3) As a measure of viability, the extent of cell adhesion was evaluated microscopically.
(§4) Cell adhesion was analyzed after 20 hours of incubation with taurultam and dehydrotaurultam respectively.
(§5) Muscle cells were incubated with taurultam or dehydrotaurultam (0.1%, 0.25%, 0.5%) for 5, 10, 20, 60 and 120 minutes at 37°. After rinsing them three times with a regular medium, the cultures were incubated for another 20 h. Then the extent of cells adhesion was examined microscopically.

COS-7 Fibroblasts [3] = assay: as above; details: for Adhesion of COS-7 Fibroblasts: then 20 h, % of control cultures
Description: (§6) For this, two different categories of cells (muscle cells and fibroblasts) were incubated with three different concentrations of the two test substances for different periods of time. A possible toxic effect of the test substances on the cells was analyzed 20 hours later. The measures to determine possible cell damage were viability and level of cell adhesion.
as §2, §3, §4
(§7) Fibroblasts were incubated with taurultam or dehydrotaurultam (0.1%, 0.25%, 0.5%) for 5, 10, 20, 60 and 120 minutes at 37°. After rinsing them three times with a regular medium, the cultures were incubated for another 20 h. Then the extent of adhesion of the cells was examined microscopically.

[4] = system: C2C12 Muscle Myoblast Cells; details: mouse
Description: as §1, §2, §3, §4, §5

COS-7 Fibroblasts [5] = system: COS-7 Fibroblasts
Description: as §6, §2, §3, §4, §7

O=C=O [CO2]
amount after γ-irradiation of a 1% taurolidine solution [1]: 9.7 mg | content after γ-irradiation of a 1% taurolidine solution [1]: 0.0019%

O=S1(=O)CCNCN1 [taurultam]
Adhesion of C2C12 Muscle Myoblast Cells ([2]; 0.1%, incubation 5 min): 100% | Adhesion of C2C12 Muscle Myoblast Cells ([2]; 0.1%, incubation 5 min, listed as Taurultam): 100% | Adhesion of C2C12 Muscle Myoblast Cells ([2]; 0.1%, incubation 10 min): 100% | Adhesion of C2C12 Muscle Myoblast Cells ([2]; 0.1%, incubation 10 min, listed as Taurultam): 100% | Adhesion of C2C12 Muscle Myoblast Cells ([2]; 0.1%, incubation 20 min): 100% | Adhesion of C2C12 Muscle Myoblast Cells ([2]; 0.1%, incubation 20 min, listed as Taurultam): 100% | Adhesion of C2C12 Muscle Myoblast Cells ([2]; 0.1%, incubation 60 min): 90% | Adhesion of C2C12 Muscle Myoblast Cells ([2]; 0.1%, incubation 120 min): 60% | Adhesion of C2C12 Muscle Myoblast Cells ([2]; 0.1%, incubation 120 min, listed as Taurultam): 60% | Adhesion of C2C12 Muscle Myoblast Cells ([2]; 0.25%, incubation 5 min): 100% | Adhesion of C2C12 Muscle Myoblast Cells ([2]; 0.25%, incubation 10 min): 95% | Adhesion of C2C12 Muscle Myoblast Cells ([2]; 0.25%, incubation 20 min): 90% | Adhesion of C2C12 Muscle Myoblast Cells ([2]; 0.25%, incubation 60 min): 70% | Adhesion of C2C12 Muscle Myoblast Cells ([2]; 0.25%, incubation 120 min): 60% | cell adhesion, muscle cells ([2]; 0.25%, incubation periods of 60 and 120 minutes): 60-70% | Adhesion of C2C12 Muscle Myoblast Cells ([2]; 0.5%, incubation 5 min): 95% | Adhesion of C2C12 Muscle Myoblast Cells ([2]; 0.5%, incubation 10 min): 90% | Adhesion of C2C12 Muscle Myoblast Cells ([2]; 0.5%, incubation 20 min): 90% | Adhesion of C2C12 Muscle Myoblast Cells ([2]; 0.5%, incubation 60 min): 60% | Adhesion of C2C12 Muscle Myoblast Cells ([2]; 0.5%, incubation 120 min): 50% | cell adhesion, muscle cells ([2]; 0.5%, incubation periods of 60-120 minutes): 50-60% | cell adhesion, muscle cells ([2]; all concentrations (0.1-0.5%), 2-hour incubation period): 50-60% | Adhesion of COS-7 Fibroblasts (COS-7 Fibroblasts [3]; 0.1%, incubation 5 min): 100% | Adhesion of COS-7 Fibroblasts (COS-7 Fibroblasts [3]; 0.1%, incubation 10 min): 100% | Adhesion of COS-7 Fibroblasts (COS-7 Fibroblasts [3]; 0.1%, incubation 20 min): 90% | Adhesion of COS-7 Fibroblasts (COS-7 Fibroblasts [3]; 0.1%, incubation 60 min): 80% | Adhesion of COS-7 Fibroblasts (COS-7 Fibroblasts [3]; 0.1%, incubation 120 min): 70% | cell adhesion, fibroblasts (COS-7 Fibroblasts [3]; 0.1%, more extended incubation periods (60 and 120 minutes)): limited adhesion was observed | Adhesion of COS-7 Fibroblasts (COS-7 Fibroblasts [3]; 0.25%, incubation 5 min): 95% | Adhesion of COS-7 Fibroblasts (COS-7 Fibroblasts [3]; 0.25%, incubation 10 min): 90% | Adhesion of COS-7 Fibroblasts (COS-7 Fibroblasts [3]; 0.25%, incubation 20 min): 60% | Adhesion of COS-7 Fibroblasts (COS-7 Fibroblasts [3]; 0.25%, incubation 60 min): 60% | Adhesion of COS-7 Fibroblasts (COS-7 Fibroblasts [3]; 0.25%, incubation 120 min): 70% | cell adhesion, fibroblasts (COS-7 Fibroblasts [3]; 0.25%, incubation period of at least 20 minutes): 60% | Adhesion of COS-7 Fibroblasts (COS-7 Fibroblasts [3]; 0.5%, incubation 5 min): 95% | Adhesion of COS-7 Fibroblasts (COS-7 Fibroblasts [3]; 0.5%, incubation 10 min): 90% | Adhesion of COS-7 Fibroblasts (COS-7 Fibroblasts [3]; 0.5%, incubation 20 min): 70% | Adhesion of COS-7 Fibroblasts (COS-7 Fibroblasts [3]; 0.5%, incubation 60 min): 60% | Adhesion of COS-7 Fibroblasts (COS-7 Fibroblasts [3]; 0.5%, incubation 120 min): 40% | cell adhesion, fibroblasts (COS-7 Fibroblasts [3]; 0.5%, more extended incubation periods (beyond 10 minutes)): ≥ 40% | cell adhesion, fibroblasts (COS-7 Fibroblasts [3]; most extreme conditions (0.5%, 1-2 h)): 40-60%

OCO [methylene glycol]
amount after γ-irradiation of a 1% taurolidine solution [1]: 81 mg | content after γ-irradiation of a 1% taurolidine solution [1]: 0.0160%

NCCS(=O)(=O)O [taurine]
amount after γ-irradiation of a 1% taurolidine solution [1]: 53 mg | content after γ-irradiation of a 1% taurolidine solution [1]: 0.0106%

O=S1(=O)CCN=CN1 [dehydrotaurultam]
amount after γ-irradiation of a 1% taurolidine solution [1]: 780 mg | content after γ-irradiation of a 1% taurolidine solution [1]: 0.156% | cell adhesion, muscle cells ([4]; 0.25 %): 80% | cell adhesion, muscle cells ([4]; 0.5 %): 80-90% | Adhesion of C2C12 Muscle Myoblast Cells ([4]; 5 min, 0.1 %): 100% | Adhesion of C2C12 Muscle Myoblast Cells ([4]; 5 min, 0.25 %): 100% | Adhesion of C2C12 Muscle Myoblast Cells ([4]; 5 min, 0.5 %): 100% | Adhesion of C2C12 Muscle Myoblast Cells ([4]; 10 min, 0.1 %): 100% | Adhesion of C2C12 Muscle Myoblast Cells ([4]; 10 min, 0.25 %): 100% | Adhesion of C2C12 Muscle Myoblast Cells ([4]; 10 min, 0.5 %): 100% | Adhesion of C2C12 Muscle Myoblast Cells ([4]; 20 min, 0.1 %): 100% | Adhesion of C2C12 Muscle Myoblast Cells ([4]; 20 min, 0.25 %): 90% | Adhesion of C2C12 Muscle Myoblast Cells ([4]; 20 min, 0.5 %): 90% | Adhesion of C2C12 Muscle Myoblast Cells ([4]; 60 min, 0.1 %): 100% | Adhesion of C2C12 Muscle Myoblast Cells ([4]; 60 min, 0.25 %): 80% | Adhesion of C2C12 Muscle Myoblast Cells ([4]; 60 min, 0.5 %): 90% | cell adhesion, muscle cells ([4]; 2 h): 80-90% | Adhesion of C2C12 Muscle Myoblast Cells ([4]; 120 min, 0.1 %): 90% | Adhesion of C2C12 Muscle Myoblast Cells ([4]; 120 min, 0.25 %): 80% | Adhesion of C2C12 Muscle Myoblast Cells ([4]; 120 min, 0.5 %): 80% | cell adhesion, fibroblasts (COS-7 Fibroblasts [5]): not detected | cell adhesion, fibroblasts (COS-7 Fibroblasts [5]; African green monkey, 0.25 %): 80% | Adhesion of COS-7 Fibroblasts (COS-7 Fibroblasts [5]; African green monkey, 5 min, 0.1 %): 100% | Adhesion of COS-7 Fibroblasts (COS-7 Fibroblasts [5]; African green monkey, 5 min, 0.25 %): 100% | Adhesion of COS-7 Fibroblasts (COS-7 Fibroblasts [5]; African green monkey, 5 min, 0.5 %): 100% | Adhesion of COS-7 Fibroblasts (COS-7 Fibroblasts [5]; African green monkey, 10 min, 0.1 %): 100% | Adhesion of COS-7 Fibroblasts (COS-7 Fibroblasts [5]; African green monkey, 10 min, 0.25 %): 100% | Adhesion of COS-7 Fibroblasts (COS-7 Fibroblasts [5]; African green monkey, 10 min, 0.5 %): 95% | Adhesion of COS-7 Fibroblasts (COS-7 Fibroblasts [5]; African green monkey, 20 min, 0.1 %): 100% | Adhesion of COS-7 Fibroblasts (COS-7 Fibroblasts [5]; African green monkey, 20 min, 0.25 %): 90% | Adhesion of COS-7 Fibroblasts (COS-7 Fibroblasts [5]; African green monkey, 20 min, 0.5 %): 90% | Adhesion of COS-7 Fibroblasts (COS-7 Fibroblasts [5]; African green monkey, 60 min, 0.1 %): 100% | Adhesion of COS-7 Fibroblasts (COS-7 Fibroblasts [5]; African green monkey, 60 min, 0.25 %): 90% | Adhesion of COS-7 Fibroblasts (COS-7 Fibroblasts [5]; African green monkey, 60 min, 0.5 %): 80% | Adhesion of COS-7 Fibroblasts (COS-7 Fibroblasts [5]; African green monkey, 120 min, 0.1 %): 90% | Adhesion of COS-7 Fibroblasts (COS-7 Fibroblasts [5]; African green monkey, 120 min, 0.25 %): 80% | Adhesion of COS-7 Fibroblasts (COS-7 Fibroblasts [5]; African green monkey, 120 min, 0.5 %): 80%

NCCS(N)(=O)=O [taurinamide]
amount after γ-irradiation of a 1% taurolidine solution [1]: 85.5 mg | content after γ-irradiation of a 1% taurolidine solution [1]: 0.0171%
